One series deals with soybeans. Briefly: Phytotoxicity Test, soybeans. Type of series: in vivo. Set-up: key: A rating of 1 indicates no perceptible injury; ratings of 2, 3 and 4 indicate intermediate degrees of injury; ratings of 2, 3 and 4 indicate intermediate degrees of injury; ratings of 2, 3 and 4 indicate intermediate degrees of injury; 5 indicates the plant was dead. The following applies: ten days. The protocol: (§1) Suspensions of the test compounds were prepared by dissolving one gram of compound in 50 milliliters of acetone in which had been dissolved 0.1 gram (10 percent of the weight of compound) of an alkylphenoxy polyethoxyethanol surfactant, as an emulsifying or dispersing agent. The resulting solution was mixed into 150 milliliters of water to give roughly 200 milliliters of a suspension containing the compound in finely divided form. The thus-prepared stock suspension contained 0.5 percent by weight of compound. The test concentrations in parts per million by weight employed in the tests described hereinbelow were obtained by appropriate dilutions of the stock suspension with water. The test procedures were as follows:
(§2) Experiments were also conducted to determine the phytotoxicity of representative compositions with respect to healthy fresh plants. Solutions of the compounds were prepared as described above to provide a concentration of 2500 parts per million of the test compound. The test plants were sprayed in accordance with the procedure described above for the Mite Foliage Spray Test so as to deliver approximately 100 milliliters of test solution to the leaves of each plant tested. The sprayed plants and controls were set aside for approximately one hour to allow the solutions to dry and were then placed in the greenhouse. After ten days the plants were visually inspected to determine the extent of foliage injury. A rating of 1 indicates no perceptible injury; 5 indicates the plant was dead and ratings of 2, 3 and 4 indicate intermediate degrees of injury based upon the number and extent to which leaves were injured.

A short description of another series: in vivo. Particulars: rat, in vivo, po. How it is done: These compositions were also evaluated to determine their peroral toxicity to mammals by conventional methods. The animal selected for this experiment was the rat.
Series [1] concerns southern armyworm (Prodenia eridania, (Cram.)). Briefly: whole plant or invertebrate. Particulars: Spodoptera eridania, 72 h, read-out: Insect Toxicity, % Kill at 250 ppm, SAW.
Series [2] has as its system house flies (Musca domestica, L.). The experiment in a line: whole plant or invertebrate. The following applies: po, 24 h, read-out: Insect Toxicity, % Kill at 250 ppm, HF.
Series [3] deals with Mexican bean beetle (Epilachna varivestis, Muls.). Briefly: whole plant or invertebrate. The following applies: 72 h, read-out: Insect Toxicity, % Kill at 250 ppm, MBB.
A further series relates to tomato. Briefly: Phytotoxicity Test, tomato. Type of series: in vivo. Set-up: key: A rating of 1 indicates no perceptible injury; ratings of 2, 3 and 4 indicate intermediate degrees of injury; ratings of 2, 3 and 4 indicate intermediate degrees of injury; ratings of 2, 3 and 4 indicate intermediate degrees of injury; 5 indicates the plant was dead. The following applies: ten days. The protocol:
as §1, §2

Series [4] deals with two-spotted mite (Tetranychus urticae Koch). Briefly: whole plant or invertebrate. Particulars: foliar, 144 h, read-out: Insect Toxicity, % Kill at 250 ppm, TSM.
The subject of the next series is corn. Briefly: Phytotoxicity Test, corn. Type of series: in vivo. On the set-up: key: A rating of 1 indicates no perceptible injury; ratings of 2, 3 and 4 indicate intermediate degrees of injury; ratings of 2, 3 and 4 indicate intermediate degrees of injury; ratings of 2, 3 and 4 indicate intermediate degrees of injury; 5 indicates the plant was dead. Particulars: ten days. How it is done: as §1, §2

For the next series, the system named is green beans. Briefly: Phytotoxicity Test, green beans. Type of series: in vivo. On the set-up: key: A rating of 1 indicates no perceptible injury; ratings of 2, 3 and 4 indicate intermediate degrees of injury; ratings of 2, 3 and 4 indicate intermediate degrees of injury; ratings of 2, 3 and 4 indicate intermediate degrees of injury; 5 indicates the plant was dead. Particulars: ten days. How it is done:
as §1, §2

The subject of series [5] is bean aphid (Aphis fabae Scop.). The experiment in a line: whole plant or invertebrate. Particulars: foliar, 24 h, read-out: Insect Toxicity, % Kill at 250 ppm, BA.
The test system of a further series is cotton. The experiment in a line: Phytotoxicity Test, cotton. On the set-up: key: A rating of 1 indicates no perceptible injury; ratings of 2, 3 and 4 indicate intermediate degrees of injury; ratings of 2, 3 and 4 indicate intermediate degrees of injury; ratings of 2, 3 and 4 indicate intermediate degrees of injury; 5 indicates the plant was dead. The class given is in vivo. The following applies: ten days. How it is done:
as §1, §2

By LD50 is commonly meant the dose at which mortality reaches 50%. For `CN(SN1CCOCC1)C(=O)ON=C1CSCCS1` [Compound 5, 2-N-[N'-Methyl-N'-(4-Morpholinosulfenyl)Carbamoyloxy]imino-1,4-Dithiane], the “Crop Phytotoxicity, Injury Rating at 2500 ppm, SOYBN.” value (from here on “Crop Phytotoxicity … SOYBN.”) in the series on soybeans came to 1. For the same molecule, the LD50 in “in vivo” is 19.8 mg/kg. Moreover, the mortality at 250 ppm in series [1], in [2], in [3], in series [4] and in series [5] was 100% each time. In the series on tomato, the “Crop Phytotoxicity, Injury Rating at 2500 ppm, TOM” value (shortened to “Crop Phytotoxicity … TOM”) worked out at 1. Besides, in the series with corn, the “Crop Phytotoxicity, Injury Rating at 2500 ppm, CN” value (“Crop Phytotoxicity … CN” for short) came out at 1. The “Crop Phytotoxicity, Injury Rating at 2500 ppm, GB” value (shortened to “Crop Phytotoxicity … GB”) with green beans came out at 1. Besides, in the series with cotton, the “Crop Phytotoxicity, Injury Rating at 2500 ppm, COT.” value (“Crop Phytotoxicity … COT.” below) worked out at 1.

`CSC(C)(C)C=NOC(=O)N(C)SN1CCOCC1` [Compound 6, 2-Methyl-2-(Methylthio)propionaldehyde O-[N-Methyl-N-(4-Morpholinosulfenyl)Carbamoyl]oxime]: in the series on soybeans, the “Crop Phytotoxicity … SOYBN.” value is recorded as 1. This molecule showed an LD50 in the series “in vivo” of 1.2 mg/kg. The mortality at 250 ppm came out at 10% in series [1]; 100% in [2]; 0% in series [3]; 100% in series [4]; 100% in series [5]. Further, the “Crop Phytotoxicity … TOM” value in the series on tomato came out at 1. Further, the “Crop Phytotoxicity … CN” value in the series with corn was 1. Moreover, the “Crop Phytotoxicity … GB” value in the series on green beans is listed as 1. Moreover, in the series with cotton, the “Crop Phytotoxicity … COT.” value came out at 1.

With `CC(=NOC(=O)N(C)SN1CCOCC1)SC(C)C` [Compound 7, S-Isopropyl N-[N'-Methyl-N'-(4-Morpholinosulfenyl)carbamoyloxy]thioacetimidate], in the series on soybeans, the “Crop Phytotoxicity … SOYBN.” value stood at 1. For the same molecule, the LD50 in the series “in vivo” is 28.1 mg/kg. For the same molecule, the mortality at 250 ppm in [1], in series [2], in series [3], in series [4] and in series [5] was 100% in each case. Also, the “Crop Phytotoxicity … TOM” value in the series with tomato came out at 1. Also, in the series with corn, the “Crop Phytotoxicity … CN” value is recorded as 1. Besides, in the series on green beans, the “Crop Phytotoxicity … GB” value stood at 2. Also, the “Crop Phytotoxicity … COT.” value in the series on cotton turned out to be 1.

For `CC(=NOC(=O)N(C)SN1CCOCC1)SCCC#N` [Compound 8, S-(2-Cyanoethyl)-N-[N'-Methyl-N'-(4-Morpholinosulfenyl)carbamoyloxy]thioacetimidate], the “Crop Phytotoxicity … SOYBN.” value in the series on soybeans is 1. This molecule also registered an LD50 in “in vivo” of 22 mg/kg. The mortality at 250 ppm in [1], in series [2], in series [3], in series [4] and in series [5] was 100% in each case. In addition, in the series with tomato, the “Crop Phytotoxicity … TOM” value amounted to 1. In addition, the “Crop Phytotoxicity … CN” value in the series on corn was 1. Moreover, the “Crop Phytotoxicity … GB” value in the series with green beans worked out at 1. Also, the “Crop Phytotoxicity … COT.” value with cotton came to 1.

Regarding `CC1OCSC1=NOC(=O)N(C)SN1CCOCC1` (centres unmarked) [Compound 9, 5-Methyl-4-N-[N'-Methyl-N'-(4-Morpholinosulfenyl)carbamoyloxy]imino-1,3-Oxathiolane], in the series with soybeans, the “Crop Phytotoxicity … SOYBN.” value amounted to 2. This molecule came in with an LD50 in “in vivo” of 16 mg/kg. In addition, the mortality at 250 ppm in series [1], in series [2], in series [3], in series [4] and in series [5] was 100% each time. Further, the “Crop Phytotoxicity … TOM” value in the series on tomato was 2. Moreover, the “Crop Phytotoxicity … CN” value in the series with corn is 1. The “Crop Phytotoxicity … GB” value in the series on green beans is reported as 1. In addition, the “Crop Phytotoxicity … COT.” value in the series on cotton was 1.

Consider `CN(SN1CCOCC1)C(=O)ON=CC(C)(C)C#N` [Compound 10, 2-Cyano-2-Methylpropionaldehyde O-[N-Methyl-N-(4-Morpholinosulfenyl)Carbamoyl]oxime], for which the “Crop Phytotoxicity … SOYBN.” value in the series on soybeans was determined as 1. In addition, the mortality at 250 ppm in series [1], in series [2], in series [3], in series [4] and in series [5] was 100% in each case. Besides, the “Crop Phytotoxicity … TOM” value in the series with tomato turned out to be 1. Further, the “Crop Phytotoxicity … CN” value with corn turned out to be 1. The “Crop Phytotoxicity … GB” value with green beans is given as 1. The “Crop Phytotoxicity … COT.” value with cotton is recorded as 3.

Take `CSC(C)=NOC(=O)N(SN1CCOCC1)C(C)C` [Compound 14, S-Methyl-N-[N'-Isopropyl-N'-(4-Morpholinosulfenyl)Carbamoyloxy]Thioacetimidate]: the “Crop Phytotoxicity … SOYBN.” value in the series on soybeans worked out at 1. Further, the mortality at 250 ppm was 0% in series [1]; 0% in series [2]; 0% in [3]; 0% in [4]; 100% in series [5]. The “Crop Phytotoxicity … TOM” value with tomato is recorded as 1. In addition, the “Crop Phytotoxicity … CN” value in the series on corn turned out to be 1. Also, in the series with green beans, the “Crop Phytotoxicity … GB” value is on record as 1. Moreover, in the series with cotton, the “Crop Phytotoxicity … COT.” value stood at 1.

Consider `CN(SN1CCOCC1)C(=O)ON=C1SCC(=O)NC1(C)C` [Compound 16, 3,3-Dimethyl-2-N-[N'-Methyl-N'-(4-Morpholinosulfenyl)Carbamoyloxy]imino-5-Oxo-Perhydro-1,4-Thiazine], for which the “Crop Phytotoxicity … SOYBN.” value in the series with soybeans was 1. Besides, the mortality at 250 ppm in series [1], in [2], in [3], in [4] and in [5] was 100% throughout. For the same molecule, in the series on tomato, the “Crop Phytotoxicity … TOM” value is on record as 1. Further, in the series with corn, the “Crop Phytotoxicity … CN” value turned out to be 1. In the series on green beans, the “Crop Phytotoxicity … GB” value is listed as 1. For the same molecule, the “Crop Phytotoxicity … COT.” value in the series on cotton is 1.

In the case of `CN(C)SN(C)C(=O)ON=C1CSCCS1` [Compound 23, 2-N-[N'-Methyl-N'-(Dimethylaminosulfenyl)carbamoyloxy]imino-1,4-Dithiane], the “Crop Phytotoxicity … SOYBN.” value in the series with soybeans stood at 1. In the series “in vivo”, this molecule displayed an LD50 of 15 mg/kg. The mortality at 250 ppm in series [1], in series [2], in [3], in series [4] and in series [5] was 100% each time. Moreover, in the series on tomato, the “Crop Phytotoxicity … TOM” value turned out to be 1. Further, in the series on corn, the “Crop Phytotoxicity … CN” value is reported as 1. The “Crop Phytotoxicity … GB” value in the series with green beans was 1. The “Crop Phytotoxicity … COT.” value in the series with cotton was 2.

Take `CC(=NOC(=O)N(C)SN(C)C)SC(C)C` [Compound 24, S-Isopropyl-N-[N'-Methyl-N'-(Dimethylaminosulfenyl)carbamoloxy]thioacetimidate]: the “Crop Phytotoxicity … SOYBN.” value with soybeans is 3. Moreover, the LD50 in “in vivo” came out at 28.3 mg/kg. Further, the mortality at 250 ppm in series [1], in [2], in series [3], in [4] and in series [5] was 100% in each case. Besides, the “Crop Phytotoxicity … TOM” value in the series on tomato came out at 2. For the same molecule, in the series on corn, the “Crop Phytotoxicity … CN” value stood at 1. Further, the “Crop Phytotoxicity … GB” value in the series on green beans is given as 2. In the series on cotton, the “Crop Phytotoxicity … COT.” value came to 2.
